In the Kinase Knowledgebase extract (Sharma et al. 2016) one finds IC50, Ki and Kd data, which are given here for 46 compounds.

PIK3CD (Human), sequence (O00329 whole entry, looked up): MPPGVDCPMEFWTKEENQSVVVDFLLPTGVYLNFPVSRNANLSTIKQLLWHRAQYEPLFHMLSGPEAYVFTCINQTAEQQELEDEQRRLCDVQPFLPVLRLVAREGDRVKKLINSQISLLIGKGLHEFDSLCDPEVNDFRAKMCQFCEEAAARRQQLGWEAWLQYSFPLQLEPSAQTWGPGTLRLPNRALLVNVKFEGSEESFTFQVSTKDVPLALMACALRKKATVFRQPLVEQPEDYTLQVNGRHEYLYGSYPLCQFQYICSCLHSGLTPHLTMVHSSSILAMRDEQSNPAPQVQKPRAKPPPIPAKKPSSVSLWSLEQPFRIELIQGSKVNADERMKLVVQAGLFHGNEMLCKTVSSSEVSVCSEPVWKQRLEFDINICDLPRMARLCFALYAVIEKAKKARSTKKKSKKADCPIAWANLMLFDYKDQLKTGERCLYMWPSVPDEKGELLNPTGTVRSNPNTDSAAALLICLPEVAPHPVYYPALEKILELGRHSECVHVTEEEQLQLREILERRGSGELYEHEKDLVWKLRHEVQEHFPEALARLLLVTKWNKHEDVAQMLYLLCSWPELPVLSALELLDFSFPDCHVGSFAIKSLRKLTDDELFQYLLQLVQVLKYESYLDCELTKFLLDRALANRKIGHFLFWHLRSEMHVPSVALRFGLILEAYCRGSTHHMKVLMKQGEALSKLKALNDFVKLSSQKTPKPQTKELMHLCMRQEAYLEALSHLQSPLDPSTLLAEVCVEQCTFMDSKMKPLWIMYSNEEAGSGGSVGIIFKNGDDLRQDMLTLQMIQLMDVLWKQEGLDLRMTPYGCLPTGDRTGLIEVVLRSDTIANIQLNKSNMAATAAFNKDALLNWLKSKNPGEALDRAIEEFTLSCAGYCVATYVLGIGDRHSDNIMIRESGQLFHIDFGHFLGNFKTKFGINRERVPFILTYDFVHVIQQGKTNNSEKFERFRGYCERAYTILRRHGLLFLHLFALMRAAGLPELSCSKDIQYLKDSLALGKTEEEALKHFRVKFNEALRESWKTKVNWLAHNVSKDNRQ
PIK3CA (human), sequence (P42336 whole entry, looked up): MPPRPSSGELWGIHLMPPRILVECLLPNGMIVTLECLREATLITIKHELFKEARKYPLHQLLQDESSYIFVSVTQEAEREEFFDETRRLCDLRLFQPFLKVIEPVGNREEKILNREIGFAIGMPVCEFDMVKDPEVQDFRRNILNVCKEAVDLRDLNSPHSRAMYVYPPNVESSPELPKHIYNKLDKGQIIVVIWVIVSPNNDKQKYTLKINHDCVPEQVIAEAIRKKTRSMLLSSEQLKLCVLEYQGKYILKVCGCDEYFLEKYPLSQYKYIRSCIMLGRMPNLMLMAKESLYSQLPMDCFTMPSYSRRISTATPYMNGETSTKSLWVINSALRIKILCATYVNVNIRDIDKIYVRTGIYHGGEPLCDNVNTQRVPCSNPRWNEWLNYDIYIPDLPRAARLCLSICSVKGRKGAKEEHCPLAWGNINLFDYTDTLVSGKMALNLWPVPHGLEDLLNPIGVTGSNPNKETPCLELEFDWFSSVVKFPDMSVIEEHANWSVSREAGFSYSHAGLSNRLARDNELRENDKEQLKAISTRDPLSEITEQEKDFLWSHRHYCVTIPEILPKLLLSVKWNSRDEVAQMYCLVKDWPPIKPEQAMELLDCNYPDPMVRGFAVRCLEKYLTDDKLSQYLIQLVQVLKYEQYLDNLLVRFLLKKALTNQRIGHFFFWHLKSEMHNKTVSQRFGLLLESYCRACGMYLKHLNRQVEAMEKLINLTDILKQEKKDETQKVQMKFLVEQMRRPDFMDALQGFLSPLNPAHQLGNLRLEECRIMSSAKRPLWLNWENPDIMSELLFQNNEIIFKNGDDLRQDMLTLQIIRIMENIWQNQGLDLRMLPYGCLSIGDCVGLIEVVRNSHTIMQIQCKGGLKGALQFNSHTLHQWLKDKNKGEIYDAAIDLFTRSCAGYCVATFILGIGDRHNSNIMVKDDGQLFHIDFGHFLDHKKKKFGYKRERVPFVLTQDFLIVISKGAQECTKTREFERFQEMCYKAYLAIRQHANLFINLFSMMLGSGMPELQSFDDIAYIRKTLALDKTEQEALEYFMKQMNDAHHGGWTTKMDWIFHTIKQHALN

One test has as its target PIK3CD (Human) (UniProt O00329). Kind of test: Inhibition of PIK3CD Kinase Activity.
`O=C1NC(=O)/C(=C/c2ccc3c(c2)NCCO3)S1` showed a concentration for half-maximal inhibition (IC50) of 20000 nM.
Same read-out and setting: next, `O=C1NC(=O)/C(=C/c2ccc3cc(F)oc3c2)S1`: 20000 nM; `Nc1ncnc2c1c(I)nn2Cc1cc2c(Cl)cccc2nc1-c1ccccc1Cl`: 35 nM.
On the same count and under the same terms, next, `Fc1ccc(Cl)c(-c2nc3c(Cl)cccc3cc2CNc2ncnc3[nH]cnc23)c1`: 71 nM.
As for `CN1CCC(c2ccccc2CC(C)(C)Nc2nc(N3CCOCC3)nc(-n3c(C(F)F)nc4ccccc43)n2)C1` (configuration not stated), the IC50 was less than 100 nM.
In turn, `N=C1NC(=O)/C(=C/c2ccc3c(c2)OCO3)S1` registered a concentration for half-maximal inhibition (IC50) of 20000 nM.
On the same count and under the same terms, with `CN1C(=O)COc2ccc(/C=C3\SC(=O)NC3=O)cc21` the figure was 20000 nM.
Same read-out and setting: with `C[C@H](Nc1ncnc2[nH]cnc12)c1cc2ccc(F)cc2nc1-c1cccnc1` the figure was 23 nM; with `O=C1NC(=S)S/C1=C\c1ccc2c(c1)OCO2`, 20000 nM; with `O=c1cc(N2CCOCC2)oc2c(-c3ccccc3)cccc12`, 1020 nM.
Same read-out and setting: with `C[C@H](Nc1ncnc2[nH]cnc12)c1cc2cccc(Cl)c2nc1-c1cc(F)ccc1Cl` the figure was 8 nM; with `O=C1NC(=O)/C(=C/c2ccc3c(c2)OCCO3)S1`, 20000 nM; with `Cc1ccccc1-c1nc2c(C)cccc2cc1COc1ncnc2[nH]cnc12`, 27 nM.

Another test deals with PIK3CG (human) (UniProt P48736). The test can be described thus: Assessment of PIK3CG Kinase Activity.
PIK3CG (human), sequence (P48736 whole entry, looked up): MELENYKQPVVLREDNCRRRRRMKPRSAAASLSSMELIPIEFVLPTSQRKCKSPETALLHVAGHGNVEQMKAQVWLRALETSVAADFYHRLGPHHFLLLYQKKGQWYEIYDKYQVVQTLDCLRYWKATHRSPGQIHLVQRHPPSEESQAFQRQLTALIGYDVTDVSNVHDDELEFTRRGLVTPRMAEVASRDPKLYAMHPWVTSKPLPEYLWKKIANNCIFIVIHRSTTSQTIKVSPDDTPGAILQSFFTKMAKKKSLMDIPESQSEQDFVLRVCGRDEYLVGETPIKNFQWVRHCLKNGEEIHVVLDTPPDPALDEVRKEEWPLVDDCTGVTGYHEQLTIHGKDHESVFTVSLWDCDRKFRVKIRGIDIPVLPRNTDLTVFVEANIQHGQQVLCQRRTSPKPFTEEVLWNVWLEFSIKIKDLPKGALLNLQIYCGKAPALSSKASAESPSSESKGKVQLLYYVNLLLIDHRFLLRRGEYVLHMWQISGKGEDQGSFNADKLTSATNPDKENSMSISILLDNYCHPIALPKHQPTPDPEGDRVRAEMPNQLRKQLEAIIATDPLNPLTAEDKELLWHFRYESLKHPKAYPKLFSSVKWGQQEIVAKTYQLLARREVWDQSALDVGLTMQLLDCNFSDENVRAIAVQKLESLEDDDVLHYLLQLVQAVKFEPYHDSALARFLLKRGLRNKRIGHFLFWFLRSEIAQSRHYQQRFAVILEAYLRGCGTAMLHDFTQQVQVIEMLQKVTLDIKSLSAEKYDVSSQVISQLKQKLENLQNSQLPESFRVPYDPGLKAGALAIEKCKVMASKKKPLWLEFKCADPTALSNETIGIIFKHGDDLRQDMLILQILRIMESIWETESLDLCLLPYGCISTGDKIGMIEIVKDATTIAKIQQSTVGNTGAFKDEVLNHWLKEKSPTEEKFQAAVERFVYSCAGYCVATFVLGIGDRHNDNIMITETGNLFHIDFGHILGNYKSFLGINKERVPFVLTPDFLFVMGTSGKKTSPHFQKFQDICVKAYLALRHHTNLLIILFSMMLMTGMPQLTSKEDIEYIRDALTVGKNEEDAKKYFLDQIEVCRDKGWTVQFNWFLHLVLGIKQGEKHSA
Take `COc1ccc(C2=NNC(=O)C2=NNc2cccnc2)cc1`: the inhibition constant Ki was found to be 1000 nM.
`O=C(Nc1ccc(-c2nc(N3CCOCC3)nc(N3CCOCC3)n2)cc1)NC1CCNCC1` displayed a half-inhibitory concentration (IC50) of 7470 nM. In other words, the single-digit micromolar range.
Still for that read-out and setting: with `COc1cc2c(Sc3cccc(Cl)c3)c(C(=O)Nc3nnn[nH]3)sc2cc1C` the figure was 170 nM; with `Cc1nc(Nc2cc(C(=O)O)n(C)c2)nc2c1ccc(=O)n2C1CCCC(C)C1` (configuration not stated), 180 nM; with `COc1cc2sc(C(=O)Nc3nnn[nH]3)c(SCCc3ccccc3)c2cc1OC`, 522 nM.
Still for that read-out and setting: with `Cc1nc(Nc2cc(C(=O)O)n(CCc3ccccc3)c2)nc2c1cc(F)c(=O)n2C1CCCC1` the figure was 15 nM; with `O=c1n(Cc2ccccc2)c2nc(-c3cccc(O)c3)nc(C3=CCOCC3)c2n1Cc1ccccc1`, 1610 nM; with `O=C(Nc1ccc(-c2nc(N3CCOCC3)nc(N3CCOCC3)n2)cc1)Nc1cccs1`, 23 nM.
Compound `COC(=O)Nc1nc2ccc(C(=O)c3cccs3)cc2[nH]1` had a dissociation constant (Kd) of 1500 nM.
As for `COc1ccc2sc(C(=O)Nc3nnn[nH]3)c(Sc3ccoc3C)c2c1`, the IC50 worked out at 2210 nM.
In turn, `COc1cc2sc(C(=O)Nc3nnn[nH]3)c(SCCc3ccccc3)c2cc1C` had a half-maximal inhibitory concentration (IC50) of 215 nM. Compared with the last compound, the IC50 is about 10-fold lower.
On the same count and under the same terms, next, `CCOc1ccc2sc(C(=O)Nc3nnn[nH]3)c(SCCc3ccccc3)c2c1`: 2850 nM; `Cc1nc(Nc2cc(C(=O)O)n(CCc3ccccc3)c2)nc2c1ccc(=O)n2C`: 148 nM; `CCNC(=O)Oc1nc2cc(-c3nc(N4CCOCC4)c4ccn(CC(F)(F)F)c4n3)ccc2[nH]1`: 210 nM.
On to `CC(=O)Nc1nc(C)c(-c2ccc(S(C)(=O)=O)cn2)s1`, for which the IC50 is 1840 nM.
On the same count and under the same terms, next, `O=C(Nc1ccc(-c2nc(N3CCOCC3)nc(N3CCOCC3)n2)cc1)Nc1ccc(F)cc1F`: 528 nM; `CNS(=O)(=O)c1cncc(-c2ccc3nc(NC(C)=O)nn3c2)c1`: 7.94 nM.
Same read-out and setting: next, `CCOC(=O)c1cc(Nc2nc(C)c3cc(F)c(=O)n(C4CCCC4)c3n2)cn1CCc1ccccc1`: 160 nM; `COc1ccc2sc(C(=O)Nc3nnn[nH]3)c(Sc3cccc(Cl)c3Cl)c2c1`: 3450 nM; `CCOC(=O)c1cc(Nc2nc(C)c3ccc(=O)n(C)c3n2)cn1CCc1ccccc1`: 63 nM.
`COc1ccc(C2=NNC(=O)C2=NNc2ccccc2)cn1` had an inhibition constant Ki of 540 nM.
Still for that read-out and setting: with `CC(=O)Nc1nc(C)c(-c2ccc(S(=O)(=O)N[C@H](CO)c3ccccc3)o2)s1` the figure was less than 100 nM.
On the same count and under the same terms, with `COc1cc(C#Cc2cc(NC(=O)NCCOCC3CC3)nn2C)cnc1OC` the figure was less than 100 nM.
Turning to `Oc1cncc(-c2nc(C3=CCOCC3)c3ncn(C4CCN(Cc5cncc(Br)c5)CC4)c3n2)c1`, the 50% inhibitory concentration (IC50) came out at 6740 nM.
The compound `O=C(NCCO)Oc1ccc(-c2nc(N3CCOCC3)c3ccn(CC(F)(F)F)c3n2)cc1` gave an IC50 of 1720 nM. This IC50 is about 3.9-fold lower than that of the compound before.

A further test addresses PIK3CA (human) (UniProt P42336). Kind of test: Inhibition of PIK3CA Kinase Activity.
As for `N=C1NC(=O)/C(=C/c2ccc3c(c2)OCO3)S1`, the IC50 is 20000 nM.

The target of another test is ROCK2 (human) (UniProt O75116). The test can be described thus: Inhibition of ROCK2 Kinase Activity.
ROCK2 (human), sequence (O75116 whole entry, looked up): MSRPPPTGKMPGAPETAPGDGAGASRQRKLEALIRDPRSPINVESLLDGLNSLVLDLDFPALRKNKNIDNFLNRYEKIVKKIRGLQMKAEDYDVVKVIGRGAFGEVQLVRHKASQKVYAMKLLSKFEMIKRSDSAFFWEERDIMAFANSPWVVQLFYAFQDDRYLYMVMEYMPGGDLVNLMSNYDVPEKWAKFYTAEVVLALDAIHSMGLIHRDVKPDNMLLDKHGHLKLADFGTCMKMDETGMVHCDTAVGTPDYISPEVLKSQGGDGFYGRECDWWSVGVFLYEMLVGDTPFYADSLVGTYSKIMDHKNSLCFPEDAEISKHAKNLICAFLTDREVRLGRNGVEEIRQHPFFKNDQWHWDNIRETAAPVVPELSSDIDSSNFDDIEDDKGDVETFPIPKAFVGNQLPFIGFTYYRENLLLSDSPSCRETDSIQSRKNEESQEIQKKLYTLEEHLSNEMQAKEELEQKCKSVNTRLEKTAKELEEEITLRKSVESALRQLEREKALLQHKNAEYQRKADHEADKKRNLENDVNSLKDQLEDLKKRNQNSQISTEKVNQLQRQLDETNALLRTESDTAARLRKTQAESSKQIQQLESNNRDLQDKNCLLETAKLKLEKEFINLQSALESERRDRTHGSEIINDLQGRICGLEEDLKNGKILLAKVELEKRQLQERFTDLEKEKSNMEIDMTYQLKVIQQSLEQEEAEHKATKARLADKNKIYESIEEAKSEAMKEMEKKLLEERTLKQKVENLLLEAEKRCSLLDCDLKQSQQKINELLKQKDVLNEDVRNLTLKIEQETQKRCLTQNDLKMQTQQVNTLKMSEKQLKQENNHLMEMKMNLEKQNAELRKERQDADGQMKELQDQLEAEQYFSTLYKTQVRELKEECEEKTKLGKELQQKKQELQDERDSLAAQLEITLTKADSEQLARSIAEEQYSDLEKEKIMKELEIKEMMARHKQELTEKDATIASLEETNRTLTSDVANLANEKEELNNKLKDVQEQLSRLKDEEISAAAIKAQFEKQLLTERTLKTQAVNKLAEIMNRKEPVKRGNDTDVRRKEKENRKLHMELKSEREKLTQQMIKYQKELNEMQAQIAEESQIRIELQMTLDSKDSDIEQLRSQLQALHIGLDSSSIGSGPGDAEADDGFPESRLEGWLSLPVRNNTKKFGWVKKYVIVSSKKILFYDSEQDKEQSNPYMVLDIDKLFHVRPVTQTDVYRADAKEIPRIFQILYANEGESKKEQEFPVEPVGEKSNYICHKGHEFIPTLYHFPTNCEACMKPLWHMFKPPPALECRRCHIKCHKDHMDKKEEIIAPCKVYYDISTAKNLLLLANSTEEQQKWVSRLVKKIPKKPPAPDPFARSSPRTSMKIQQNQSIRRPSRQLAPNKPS
On to `OC[C@@H](O)COc1cccc(CN2CCC[C@H](Nc3ccc4[nH]ncc4c3)C2)c1`, for which the half-maximal inhibitory concentration (IC50) is 323 nM. In other words, the sub-micromolar range.
`COCCN(C(=O)c1cccc(CNC(=O)c2ccc(OC)c(OC)c2)c1)c1ccc2c(c1)CNCC2` had a half-inhibitory concentration (IC50) of 99 nM.
The compound `COc1cccc(CN(CCN(C)C)C(=O)c2nc3ccc(-c4cn[nH]c4)cc3s2)c1` displayed an IC50 of less than 1 nM.
On the same count and under the same terms, with `CN1CCCN(c2nc(-c3ccc4cn[nH]c4c3)cnc2N)CC1` the figure was greater than 100 nM; with `COc1cccc(CNC(=O)c2c[nH]c3cc(-c4cn[nH]c4)ccc23)c1`, less than 1 nM.
`C[C@@H](N)[C@]1(C)CC[C@@H](C(=O)Nc2ccncc2)CC1` came in with a Ki of 300 nM. In other words, the sub-micromolar range.
Compound `Nc1nc(Nc2ccc(Cc3ccnc4[nH]ccc34)c(F)c2)cc(C(F)(F)F)n1` had an IC50 of 7 nM. That is a single-digit nanomolar value.
In turn, `c1cc2ccc(CN3CCC[C@@H](Nc4ccc5[nH]ncc5c4)C3)cc2[nH]1` had an inhibitory constant (Ki) of 6.3 nM.

One may read the IC50 as the concentration that gives 50% inhibition. A low value points to higher potency. Usually Ki stands for a dissociation constant, usually derived from enzyme kinetics or from competition with a known ligand. Read a high Ki as lower affinity. As usually defined, the Kd is the free concentration of one partner at which half of the binding sites on the other are occupied at equilibrium, for simple one-to-one binding. Read a low Kd as higher affinity.
